Publication PMC4448987, “A neuroligin-1-derived peptide stimulates phosphorylation of the NMDA receptor NR1 subunit and rescues MK-801-induced decrease in long-term potentiation and memory impairment” (Pharmacology Research & Perspectives, 2015)
Counter-ions that a name gives are not always drawn.

Tests used:
[1] = system: hippocampal slices, CA3-CA1 synapse (fEPSP slope); test: LTP in acute hippocampal slices from mice injected s.c.; type: in vivo, C57BL/6N mice; details: mice injected with MK-801 0.1 mg/kg s.c. alone, 1 h before sacrifice; slope 25-30 min after HFS vs before; mean ± SEM, n = 6
Protocol: Juvenile C57BL/6N mice of both sexes (postnatal day 16–24; Taconic, Ejby, Denmark) were injected subcutaneously (s.c.) with 10 mg/kg of the neurolide-1 peptide solution (10 mg/mL) and again 23 h later with 10 mg/kg of the neurolide-1 peptide solution (10 mg/mL) and 0.1 mg/kg MK-801 solution (0.025 mg/mL). Mice receiving the injection with the MK-801 solution only or untreated mice served as control groups. The young mice were rapidly and humanely euthanized with a minimum of distress by decapitation at a time point corresponding to 24 h after first injection. Preceding anesthetic was omitted to preserve the tissue free of drug residues and brain slice functions as unaltered as possible when performing the physiological measurements. After decapitation, the brain was removed. […]
Measurements were made in oxygenated aCSF at room temperature (1.1 mL/min). […] The field potential in the stratum radiatum of the CA1 area of the hippocampus was recorded with an extracellular glass microelectrode (4–6 MΩ, filled with aCSF), positioned at least 500 μm away from the stimulation electrode. […]

male Wistar rats [2] = test: Spatial memory in the Morris water maze; type: in vivo; details: rat, n = 12
Protocol: The Morris water-maze test (Morris [1984]) was performed as previously described (Kraev et al. [2011]) with slight modifications (see Data S1). Male Wistar rats (Charles River), weighing 150–200 g on the day of arrival were used. To investigate for potential effects on memory consolidation, neurolide-1 was injected immediately after the training sessions on day 1 and 2 (n = 12 in each group). To test for potential effects on memory acquisition neurolide-1 was injected 2 h before start of training on training day 1 and 2 (n = 12 in each group). Finally, to test for potential effects on MK-801-induced learning deficiencies neurolide-1 was injected 2 h before start of training on day 2 and 3 in animals, which had received an injection with MK-801 30 min earlier (n = 6–9 in each group). In a slightly modified version of the MK-801 experiments a group of animals received a neurolide-1 injection immediately after the training sessions on day 1, and then a neurolide-1 injection 2 h before start of training on day 2, preceded by an MK-801 injection 30 min earlier (n = 12 in each group). Terminally, rats were rapidly and humanely rendered unconscious by concussive stunning and euthanized by cervical dislocation.
The Morris water maze test (Morris, 1984) was conducted in a 160 cm wide circular black tank placed in a dimly lit room and filled with 21°C water up to 20 cm from the top. The tank was surrounded by visual orientation marks, and a 10 cm wide escape platform was placed 1.5 cm below the water level for it to be unseen. A video camera was placed above the tank and connected to a computerized tracking system (Ethovision 3.1, Noldus IT, Wageningen, Holland). The tank was divided into four equal-size quadrants that also served as starting positions. The latency to locate the platform, time spent swimming, and swimming speed were scored within the defined zones (i.e., total area, quadrants, and a platform circle that was 60 cm in diameter with the center in the original platform location). Prior to training, the rats were handled 2 min daily for 5 days to minimize stress during the experiments.
Reference memory training consisted of three consecutive trials daily for 3 days. Each trial began with placing the animal in the water facing the wall of the pool. The starting position differed for each trial but was identical for all animals. In each trial, the animal was allowed 90 s to locate the platform. […] After each trial, the rats were allowed 20 s of orientation time on the platform and then removed from the pool for 20 s before the next trial was initiated. After the last trial each day, the animals were dried and returned to their home cages.
To test for effects on long-term memory, the animals were tested in a probe trial 24 h after the last reference memory training. In the probe trial, the platform was removed, and the animals began from a position in a quadrant adjacent to the original platform quadrant. The rats were allowed to swim for 60 s, after which the trial was stopped.

male Wistar rats [3] = test: Y maze test (spontaneous alternation); type: in vivo, rat; details: n = 6-12
Protocol: NMDA-mediated effects of Neurolide-1 on spatial working memory performance was assessed by recording spontaneous alternation behavior in a Y maze test performed as described previously (Wegener et al. [2011]), (See Data S1). Initially, adult male Wister rats (420–490 g, n = 6–12; Charles River) were injected s.c., three times at 28, 4, and 2 h before start of the Y maze test. One group received Neurolide-1, saline, and neurolide-1 in this order. Another group received saline, MK-801, and saline in this order. A third group received neurolide-1, MK-801, and neurolide-1 in this order. And control group received saline at all times. In a second setup we tested the effect of neurolide-1 in very young male Wistar rats (4-weeks old) which received a s.c., injection of neurolide-1 or saline 2 h prior to testing them in the Y-maze (n = 11–15). Terminally, rats were rapidly and humanely rendered unconscious by concussive stunning and euthanized by cervical dislocation.
The maze was made of gray polyvinyl chloride, with three identical arms (425 mm length × 225 mm height × 145 mm width) mounted symmetrically to an equilateral triangular center section. Each rat was placed at the end of one arm and allowed to explore the apparatus freely for 8 min. The sequence and number of all arm entries were recorded for each animal throughout the testing period. An alternation was defined as entries into all three arms on consecutive occasions. Therefore, the number of maximal alternation was the total number of arm entries minus 2, and the percentage of alternation was calculated as (actual alternations / maximal alternations) × 100. The total number of arms entered during the sessions was also determined (Yamaguchi et al, 2006). Data were eliminated in cases in which the number of total arm entries was less than 10 or when the rat escaped from the Y maze. After each trial, the Y maze was cleaned with 1% Virkon S (Pharmaxim, Helsingborg, Sweden).

[4] = MK-801 0.1 mg/kg, cited from earlier work
[5] = system: NMDA receptor NR1 subunit (serine 897); test: NMDA receptor phosphorylation assay (immunoblot, anti-phospho-Ser897-NR1) in cultured cortical neurons; type: cell-based, Wistar rat; details: cultured rat cortical neurons, 5 min stimulation, NL1 ectodomain up to 5.4 nmol/L, four independent experiments
Protocol: Cortical neurons were obtained from Wistar rat embryos at embryonic day 19, of both sexes, basically as previously described (Maar et al. [1997]) (see Data S1). Briefly, animals were rendered unconscious by concussive stunning and euthanized by cervical dislocation. Hereafter, the embryonic brains were collected and cortical neurons were dissociated and seeded in 60-mm tissue culture dishes coated with 1 μg/mL of poly-D-lysine (Sigma-Aldrich, St. Louis, MO) and grown for 8 days before treatment. Then, the cultures were stimulated with either the NL1 ectodomain (0.2, 0.6, 1.8, and 5.4 nmol/L) or neurolide-1 (0.1, 0.3, 1, and 2.7 μmol/L) for 5 min. The cells were lysed, and proteins were resolved by sodium dodecyl sulfate-polyacrylamide gel electrophoresis followed by immunoblotting using rabbit anti-Ser897-NR1 antibody (1:500; Millipore, Billerica, MA), mouse anti-β-tubulin antibody (1:50,000; Sigma-Aldrich), and IRDye secondary antibodies (Odyssey, Lincoln, NE). The bands were visualized using the Odyssey CLX Infrared Imaging System (Odyssey). Four independent experiments with stimulation by NL1 ectodomain and eight independent experiments with stimulation by neurolide-1 were performed.

| Molecule | increase of fEPSP slope after high-frequency stimulation (LTP) [1] | learning (escape latency) in the water maze (male Wistar rats [2]; MK-801 0.1 mg/kg s.c. on day 2, 2.5 h before first training session) | velocity in the water maze (male Wistar rats [2]; MK-801 0.1 mg/kg s.c. with or without neurolide-1 10 mg/kg s.c. (long-term regimen)) | alternation rate (male Wistar rats [3]; adult rats 420-490 g, MK-801 0.1 mg/kg s.c. 4 h before test) | total number of arm entries, single treatment (male Wistar rats [3]; adult rats, peptide alone or MK-801 alone) | time after injection at which the increase in stereotypy peaked ([4]; returned to baseline 2 h later, ref Homayoun et al. [2004], Su et al. [2007]) | motility ([4]; ref Verma and Moghaddam [1996], Homayoun et al. [2004]) | effect on NR1 phosphorylation at higher concentrations [5] |
| --- | --- | --- | --- | --- | --- | --- | --- | --- |
| C[C@]12N[C@H](Cc3ccccc31)c1ccccc12 [MK-801, (5S,10R)-(+)-5-methyl-10,11-dihydro-5H-dibenzo[a,d]cyclohepten-5,10-imine maleate] | 27 ± 5% | strongly inhibited learning | Neither treatments affected velocity | ~50% | did not change | 40 min | induce hypermotility | – |
| NL1: rat recombinant NL1 ectodomain obtained from R&D Systems (protein, UniProt Q62765 46-697, looked up, extracellular domain, rat recombinant NL1 ectodomain obtained from R&D Systems) extracellular domain: QKLDDVDPLVTTNFGKIRGIKKELNNEILGPVIQFLGVPYAAPPTGEHRFQPPEPPSPWSDIRNATQFAPVCPQNIIDGRLPEVMLPVWFTNNLDVVSSYVQDQSEDCLYLNIYVPTEDVKRISKECARKPGKKICRKGDIRDSGGPKPVMVYIHGGSYMEGTGNLYDGSVLASYGNVIVITVNYRLGVLGFLSTGDQAAKGNYGLLDLIQALRWTSENIGFFGGDPLRITVFGSGAGGSCVNLLTLSHYSEGNRWSNSTKGLFQRAIAQSGTALSSWAVSFQPAKYARILATKVGCNVSDTVELVECLQKKPYKELVDQDVQPARYHIAFGPVIDGDVIPDDPQILMEQGEFLNYDIMLGVNQGEGLKFVENIVDSDDGVSASDFDFAVSNFVDNLYGYPEGKDVLRETIKFMYTDWADRHNPETRRKTLLALFTDHQWVAPAVATADLHSNFGSPTYFYAFYHHCQTDQVPAWADAAHGDEVPYVLGIPMIGPTELFPCNFSKNDVMLSAVVMTYWTNFAKTGDPNQPVPQDTKFIHTKPNRFEEVAWTRYSQKDQLYLHIGLKPRVKEHYRANKVNLWLELVPHLHNLNDISQYTSTTTKVPSTDITLRPTRKNSTPVTSAFPTAKQDDPKQQPSPFSVDQRDYSTELS | – | – | – | – | – | – | – | did not have a statistically significant effect |
